Data reported in paper PMC4237514, “Novel amino-β-lactam derivatives as potent cholesterol absorption inhibitors” (European Journal of Medicinal Chemistry, 2014).
Where “and” joins values, the source holds several entries; their conditions need not be identical. Equal values may be shown once.

Columns and labels:
[1] = pKa by spectrophotometric titration; format: physicochemical; conditions: λ 247 nm, pH 6–12, 20 °C
Description: We determined pKa values of the amino alcohols 5 (Fig. 9) and 6 (data not shown) using spectrophotometric titration.
Stock solution of amino alcohols 5 and 6 (160 μL, 2 mg/mL methanol) was added to NaCl solution in water (20 mL, 0.1 mol/L), thus resulting in a solution of each amino alcohol 5 and 6 in concentration of 4 × 10^−5 mol/L. Furthermore, solutions of NaOH (0.1 mol/L, 1 mol/L and 2 mol/L) were prepared in NaCl solution in water (100 mL, 0.1 mol/L). NaOH solutions (1.5–20 μL) were added to each solution of amino alcohol 5 or 6, pH values measured and UV spectra (λ 200–350 nm) recorded at pH 6–12. The titrations were performed at rt (20 °C) and inflection points of sigmoid curves at λ 247 nm were calculated as pKa values for both amino alcohols.

[2] = tested on: cholesterol absorption; test: In vivo acute cholesterol absorption; parameters: species or system C57BL/6 mice; conditions: mice; for In vivo inhibition (%) of cholesterol absorption, Duodenum / In vivo inhibition (%) of cholesterol absorption, Jejunum / In vivo inhibition (%) of cholesterol absorption, Ileum / In vivo inhibition (%) of cholesterol absorption, Liver / In vivo inhibition (%) of cholesterol absorption, Plasma: [3H]cholesterol reduction relative to vehicle
Description: In vivo, we first determined the consequences of ezetimibe 1 and amino alcohols 5 and 6 on cholesterol absorption. We therefore gavaged mice with 2 μCi [^3H]cholesterol and 10 mg/kg/day of each compound or vehicle, and radioactivity was measured in plasma, liver, and three equal parts of the intestine (duodenum, jejunum, ileum). Percentage of [^3H]cholesterol reduction is presented relative to vehicle, respectively. […] We therefore increased the dose to 20 mg/kg/day and determined inhibition of cholesterol absorption. The inhibition in duodenum and jejunum was similar to the lower dose, whereas in ileum it raised from 21% to 41% (Table 3). Decreased cholesterol absorption of 5 in the small intestine compared to ezetimibe 1 might be explained by the fact that 2-azetidinones are moderate acyl-coenzyme A:cholesterol acyltransferase inhibitors and their level of activity is highly structure-dependent. It might therefore be speculated that acyl-coenzyme A:cholesterol acyltransferase activity of amino alcohols 5 and 6 and their diastereoisomeric mixtures is altered compared to ezetimibe 1.
Male C57BL/6 mice aged 25–28 weeks were maintained under a 12 h light/12 h dark cycle in a temperature-controlled environment with free access to chow diet (Ssniff, Germany) and water. For 2 days, mice (n = 3–5) were fasted for 4 h and gavaged with corn oil (100 μl) (vehicle) containing ezetimibe 1 (10 mg/kg/day) or compounds 5, 6, and 5/6 (70:30) (10 or 20 mg/kg/day). On day 2, 90 min post vehicle or compound treatment, mice were gavaged with corn oil (200 μl) containing [^3H]cholesterol (2 μCi) ([1,2–3H(N)] cholesterol, 1 mCi/mL, ARC Inc., St. Louis, USA). Plasma, liver, and small intestines were collected 4 h post-gavage. Cholesterol uptake and absorption were determined as previously described.

[3] = MTT cytotoxicity assay in hNPC1L1/MDCKII cells; format: cell-based; conditions: dog, MDCKII cells stably expressing human NPC1L1 (hNPC1L1/MDCKII), read-out: LC50, hNPC1L1/MDCKII
Description: (§1) Cytotoxicity of amino alcohols 5, 6 and their diastereoisomeric mixture 5/6 was analyzed using MTT cell proliferation assay and the LC50 values were determined in MDCKII wild type, hNPC1L1/MDCKII, and HepG2 cells (Table 2). MDCKII cells stably expressing human Niemann-Pick C1-like protein 1 (hNPC1L1/MDCKII) (Figure S1) are a pharmacologically validated system for investigating NPC1L1-mediated cholesterol uptake. The LC50 values were higher than 100 μM and considered nontoxic in all three cell lines. […] In addition, we tested the in vitro cytotoxicity of ezetimibe 1 and compounds 5, 6, and 5/6 (70:30) in combination with micelles and found all LC50 values to be above 100 μM (Figure S2).
(§2) Madin–Darby Canine Kidney II (MDCKII) cells, MDCKII cells stably expressing human NPC1L1 (hNPC1L1/MDCKII), and human HepG2 liver cells were maintained in DMEM (Dulbecco's Modified Eagle Medium, Invitrogen, USA) containing 100 units/mL penicillin and 100 μg/mL streptomycin supplemented with 10% FCS (Sigma–Aldrich, Germany). The cells were grown at 37 °C in a humidified 5% CO2 incubator. Stable transfection of MDCKII cells with human NPC1L1 protein was performed using Lipofectamine LTX (Invitrogen, USA) according to the manufacturer's protocol. Selection with 1 mg/mL G418 (Sigma–Aldrich, Germany) was started 2 days after transfection. The concentration of G418 was decreased to 500 μg/mL after 14 days. Stably transfected cells were maintained in DMEM containing 100 units/mL penicillin and 100 μg/mL streptomycin supplemented with 10% FCS and 500 μg/mL G418.
(§3) MDCKII, hNPC1L1/MDCKII, and HepG2 cells were seeded in 96-well microtiter plates on day 0 at densities of 3000 cells/well. On day 1, tested compounds (73 mM stock solution in DMSO) were added in five consecutive 10-fold dilutions (10^−8 to 10^−4 mol/L) and incubated for 72 h. Cytotoxicity of the compounds was assessed on day 4 by the MTT cell proliferation assay (Sigma–Aldrich, Germany) which detects mitochondrial dehydrogenase activity in viable cells. The results are expressed as LC50 and the values for each compound were calculated from dose–response curves using linear regression analysis. Each concentration was tested in quadruplicate in three independent experiments. Toxicity of the compounds in combination with micelles was also tested using the same method. MDCKII and hNPC1L1/MDCKII were seeded in 96-well microtiter plates (150 μL medium/well) at a density of 2 × 10^5 cells/mL medium 24 h before the experiment. Micelles were prepared according to the modified method reported by Field et al.. In brief, 0.25 mM oleic acid, 50 μM cholesterol, 10 μM compactin, 50 μM mevalonate, 5 mM Na-taurocholate (Sigma–Aldrich, Germany) in DMEM/10% FCS were mixed and sonicated. […] Thereafter, cytotoxicity was determined using the MTT assay.

[4] = MTT cytotoxicity assay in MDCKII wild type cells; format: cell-based; conditions: dog, MDCKII wild type cells, read-out: LC50, MDCKII
Description: as §1, §2
MDCKII, hNPC1L1/MDCKII, and HepG2 cells were seeded in 96-well microtiter plates on day 0 at densities of 3000 cells/well. On day 1, tested compounds (73 mM stock solution in DMSO) were added in five consecutive 10-fold dilutions (10^−8 to 10^−4 mol/L) and incubated for 72 h. Cytotoxicity of the compounds was assessed on day 4 by the MTT cell proliferation assay (Sigma–Aldrich, Germany) which detects mitochondrial dehydrogenase activity in viable cells. The results are expressed as LC50 and the values for each compound were calculated from dose–response curves using linear regression analysis. Each concentration was tested in quadruplicate in three independent experiments. Toxicity of the compounds in combination with micelles was also tested using the same method. MDCKII and hNPC1L1/MDCKII were seeded in 96-well microtiter plates (150 μL medium/well) at a density of 2 × 10^5 cells/mL medium 24 h before the experiment. Micelles were prepared according to the modified method reported by Field et al.. In brief, 0.25 mM oleic acid, 50 μM cholesterol, 10 μM compactin, 50 μM mevalonate, 5 mM Na-taurocholate (Sigma–Aldrich, Germany) in DMEM/10% FCS were mixed and sonicated. Following the micellar formation, compounds 1, 5, 6, and 5/6 (70:30) (73 mM stock solution in DMSO) were added to the medium and vortexed to obtain the final concentrations of the compounds (25, 50, 100, 150, 200 μM) and applied to the cells for 1 h. Thereafter, cytotoxicity was determined using the MTT assay.

[5] = MTT cytotoxicity assay in HepG2 cells; format: cell-based; conditions: human, read-out: LC50, HepG2
Description: as §1, §2, §3

[6] = gavage 10 mg/kg/day for 2 days, 10 mg/kg/day

Row | Compound | pKa [1] | In vivo inhibition (%) of cholesterol absorption, Duodenum ([2]; gavage 10 mg/kg/day for 2 days) | In vivo inhibition (%) of cholesterol absorption, Jejunum ([2]; gavage 10 mg/kg/day for 2 days) | In vivo inhibition (%) of cholesterol absorption, Liver [2, 6] | In vivo inhibition (%) of cholesterol absorption, Plasma [2, 6] | In vivo inhibition (%) of cholesterol absorption, Duodenum ([2]; gavage 20 mg/kg/day for 2 days) | In vivo inhibition (%) of cholesterol absorption, Jejunum ([2]; gavage 20 mg/kg/day for 2 days) | In vivo inhibition (%) of cholesterol absorption, Liver ([2]; gavage 20 mg/kg/day for 2 days) | In vivo inhibition (%) of cholesterol absorption, Plasma ([2]; gavage 20 mg/kg/day for 2 days) | CC50 at 72 h [3] | CC50 at 72 h [4] | CC50 at 72 h [5] | In vivo inhibition (%) of cholesterol absorption, Ileum ([2]; gavage 10 mg/kg/day for 2 days) | In vivo inhibition (%) of cholesterol absorption, Ileum ([2]; gavage 20 mg/kg/day for 2 days) | also measured
1 | O=C1[C@H](NC[C@H](O)c2ccc(F)cc2)[C@@H](c2ccc(O)cc2)N1c1ccc(F)cc1 [Compound 5] | 9.35 | 23 ± 18% | 23 ± 13% | 44% and 44 ± 6 % | 50% and 50 ± 8 % | 18 ± 14% | 19 ± 16% | 33 ± 6 % | 52 ± 7 % | > 100 µM | > 100 µM | > 100 µM | – | – | reduction of radioactivity in the small intestine ([2]; 10 mg/kg/day, small intestine overall, not statistically significant): ~22%; In vivo inhibition (%) of cholesterol absorption, Ileum [2, 6]: 21% and 21 ± 20%; In vivo inhibition (%) of cholesterol absorption, Ileum ([2]; gavage 20 mg/kg/day for 2 days, 20 mg/kg/day): 41% and 41 ± 12 %
2 | O=C1[C@H](NC[C@@H](O)c2ccc(F)cc2)[C@@H](c2ccc(O)cc2)N1c1ccc(F)cc1 [Compound 6, (3R,4R)-3-[(2S)-2-(4-fluorophenyl)-2-hydroxyethylamino]-1-(4-fluorophenyl)-4-(4-hydroxyphenyl)azetidin-2-one] | 9.35 | 43 ± 11 % | 37 ± 11 % | 47% and 47 ± 0 % | 32% and 32 ± 5 % | 35 ± 9 % | 26 ± 8% | 49 ± 10 % | 38 ± 11 % | > 100 µM | > 100 µM | > 100 µM | 58 ± 8 % | 60 ± 9 % | inhibition of [3H]cholesterol in the ileum ([2]; span over the 10 and 20 mg/kg/day groups): 58–60%
3 | O=C1[C@H](CC[C@H](O)c2ccc(F)cc2)[C@@H](c2ccc(O)cc2)N1c1ccc(F)cc1 [Compound 1, ezetimibe, reference compound] | – | 65 ± 1 % | 61 ± 2 % | – | – | – | – | – | – | – | > 100 µM | – | 47 ± 3 % | – | In vivo inhibition (%) of cholesterol absorption, Liver ([2]; gavage 10 mg/kg/day for 2 days): 52 ± 3 %; In vivo inhibition (%) of cholesterol absorption, Plasma ([2]; gavage 10 mg/kg/day for 2 days): 60 ± 6 %; CC50 at 96 h ([3]; 72 h): 62.3 µM; CC50 at 96 h ([5]; 72 h): 69.7 µM
4 | O=C1[C@H](NCC(O)c2ccc(F)cc2)[C@@H](c2ccc(O)cc2)N1c1ccc(F)cc1 (mixture of isomers) [5/6 (70:30), (3R,4R)-3-[(2R/S)-2-(4-fluorophenyl)-2-hydroxyethylamino]-1-(4-fluorophenyl)-4-(4-hydroxyphenyl)azetidin-2-one] | – | – | – | – | – | 49 ± 7 % | 48 ± 9 % | 70 ± 5 % | 64 ± 7 % | > 100 µM | > 100 µM | > 100 µM | – | 41 ± 21% | –
